Source: US7619076B2, “Synthetic compounds useful as nodulation agents of leguminous plants and preparation processes thereof” (Bayer Cropscience S.A., priority 2003, dated 2009)
Entries after “also recorded” stand apart in the source; their conditions may differ.

Experiments:
alfalfa = assay: Nodulation tests on alfalfa (induction of the formation of root nodules); type: in vivo; settings: alfalfa plantlets; for nodulation activity relative to the benzamide derivative 3: FIG. 2-4
Procedure: The sulfated products are tested on alfalfa for induction of the formation of root nodules, and on the model legume Medicago truncatula for induction of the expression of a symbiotic gene coding for an early nodulin. Alfalfa plantlets are grown under axenic conditions in test tubes on a nitrogen-poor agar medium (Demont-Caulet et al., Plant Physiol., 120, 83-92, 1999). Untreated plantlets serve as control. Natural Nod or synthetic LCO factors are added at the concentrations indicated.

MtENOD11::GUSA = assay: Induction of early nodulin ENOD11 transcription, MtENOD11::GUSA reporter, wild-type Jemalong plants; type: in vivo, Medicago truncatula; settings: 6 hours LCO treatment, X-Gluc blue roots counted, FIG. 5
Procedure: (§1) These tests are performed to determine whether the synthetic LCOs induce symbiotic responses by activation on the same signal transduction pathway as the natural Nod factors. The tests are performed on the model legume Medicago truncatula. […] The compound that serves as reference is the sulfated tetramer 12 acylated with C16:2Δ2E,9Z chain, which is an analog of the natural Nod factor. The control is the plant cultivated in the absence of LCO.
(§2) A new gene of Medicago truncatula, MtENOD11, coding for an RPRP (Repetitive proline-rich protein), and transcribed during the first steps of infection of nodulation on the nodule roots and tissues was identified (Journet et al. Mol. Plant-Microbe Interact., 14, 737-748, 2001). Using the transgenic Medicago truncatula plant expressing the fusion MtENOD11::GUSA, it is possible to determine whether a Nod factor analog added to the culture medium of the plant has induced transcription of the ENOD11 gene.
(§3) For the ENOD11 transcription tests, a Fahraeus medium is used as for the modulation tests, but without agar. The seedlings are placed on paper in pockets containing the culture medium. […] The number of roots giving a characteristic blue response is then counted.

[1] = tested on: MtENOD11::GUS in plant bearing a mutation in the DMI1 gene; assay: Induction of early nodulin ENOD11 transcription, MtENOD11::GUS reporter, plants bearing a mutation in the DMI1 gene; type: in vivo, Medicago truncatula; settings: DMI1 mutant plants, 6 hours LCO treatment, X-Gluc
Procedure: as §1, §2, §3

Lotus corniculatus = assay: Root hair deformation assay on Lotus corniculatus; type: in vivo; set-up: key to Root hair deformation (Had) response: The responses were classified “+” when the proportion of Had+ was significantly higher (at the probability level P=0.05) among the treated plants compared with the untreated control; settings: for Root hair deformation (Had) response: 15 plants, 16 hr incubation
Procedure: Seeds of Lotus corniculatus (cv Rodeo) were sterilized. Germinated seeds with rootlets about 1 cm long were aseptically transferred onto Farhaeus soft agar plates. Plates were sealed with Parafilm and placed vertically for two days in a plant growth chamber (at 25° C., with a 16-hr light period, a relative humidity of 75%, OsramVFluora L 77 as the type of light, and light intensity at the level of the top of the plates of 30 μE.m-2.s-1) to allow plant growth and root hair development. Then 2 ml of a Nod factor derivative sterile solution was poured to cover the Lotus root system, and after 30 mm, excess liquid was removed. A further incubation was performed for 16 hr in the plant growth chamber. The roots of the five plants were transferred between slide and cover slip and observed by bright field microscopy after staining by methylene blue.
Hair deformation (Had) activity was estimated by a limit dilution method. Nod factor derivatives were applied at concentrations ranging from 10^-7 M to 10-11 M. The activity of two DP5 chitin derivatives were compared, the soybean Nod factor and its benzoylated analog 10. Both compounds were O-fucosylated at the reducing end, but differed by the N-substitution on the terminal non-reducing glucosamine residue, either C18:1 N-acylated like the soybean Nod factor or N-benzoylated. Each compound was dissolved in water/ethanol 50/50; 0,01% Chaps was added at a concentration of 1 mM. These stock solutions were then diluted in water. […] The statistical significance (at the P=0.05) of the proportion of <<+>> responses was calculated using the ratio comparisons based on the Fisher's <<Exact>> test (SAS software). Experiments were carried out twice.
Fifteen plants were used for each treatment and each dilution. Sixty six untreated control plants were used to estimate the intrinsic plant variability for the Hair deformation character. […] Data were analysed using the Fisher's “Exact” test.

CCCCCC/C=C\CCCOc1cccc(C(=O)N[C@H]2[C@H](O[C@H]3[C@H](O)[C@@H](NC(C)=O)[C@H](O[C@H]4[C@H](O)[C@@H](NC(C)=O)[C@H](O[C@H]5[C@H](O)[C@@H](NC(C)=O)C(O)O[C@@H]5COS(=O)(=O)[O-])O[C@@H]4CO)O[C@@H]3CO)O[C@H](CO)[C@@H](O)[C@@H]2O)c1.[Na+] (stereo partly drawn) [compound 3, 2-acetamido-4-O-{2-acetamido-4-O-[2-acetamido-2-deoxy-4-O-(2-deoxy-2-(N-3-(undec-4Z-enyloxy)benzoyl)amino-β-D-glucopyranosyl)-β-D-glucopyranosyl]-2-deoxy-β-D-glucopyranosyl}-2-deoxy-6-O-sulfo-D-glucopyranose, sodium salt]
nodulation activity on alfalfa (alfalfa; axenic, nitrogen-poor agar medium, result in words, sodium salt): advantageous activity; also recorded: most active synthetic compound | nodulation activity relative to the sulfated tetramer 11 acylated with the reference C16:1Δ9Z chain (alfalfa; FIG. 1): similar | ENOD11 transcription, times less active than the reference compound, the acylated tetramer 12 (MtENOD11::GUSA): approximately 10 times | ENOD11::GUS response in plants bearing the DMI1 mutation [1]: does not induce any response

CCCCCC/C=C\CCCOc1cccc(CN[C@H]2[C@H](O[C@H]3[C@H](O)[C@@H](NC(C)=O)[C@H](O[C@H]4[C@H](O)[C@@H](NC(C)=O)[C@H](O[C@H]5[C@H](O)[C@@H](NC(C)=O)C(O)O[C@@H]5COS(=O)(=O)[O-])O[C@@H]4CO)O[C@@H]3CO)O[C@H](CO)[C@@H](O)[C@@H]2O)c1.[Na+] (stereo partly drawn) [compound 4, 2-acetamido 4-O-{2-acetamido-4-O-[2-acetamido-2-deoxy-4-O-(2-deoxy-2-(N-3-(undec-4Z-enyloxy)benzyl)amino-β-D-glucopyranosyl)-β-D-glucopyranosyl]-2-deoxy-β-D-glucopyranosyl}-2-deoxy-6-O-sulfo-D-glucopyranose, sodium salt]
nodulation activity relative to the benzamide derivative 3 (alfalfa): moderate activity

CCCCCC/C=C\CCCOc1cccc(CN(C(C)=O)[C@H]2[C@H](O[C@H]3[C@H](O)[C@@H](NC(C)=O)[C@H](O[C@H]4[C@H](O)[C@@H](NC(C)=O)[C@H](O[C@H]5[C@H](O)[C@@H](NC(C)=O)C(O)O[C@@H]5COS(=O)(=O)[O-])O[C@@H]4CO)O[C@@H]3CO)O[C@H](CO)[C@@H](O)[C@@H]2O)c1.[Na+] (stereo partly drawn) [compound 5, 2-acetamido-4-O-{2-acetamido-4-O-[2-acetamido-2-deoxy-4-O-(2-deoxy-2-(N-3-(undec-4Z-enyloxy)benzyl)acetamido-β-D-glucopyranosyl)-β-D-glucopyranosyl]-2-deoxy-β-D-glucopyranosyl}-2-deoxy-6-O-sulfo-D-glucopyranose, sodium salt]
nodulation activity relative to the benzamide derivative 3 (alfalfa): lower

CCCCCCC#CCCCOc1cccc(C(=O)N[C@H]2[C@H](O[C@H]3[C@H](O)[C@@H](NC(C)=O)[C@H](O[C@H]4[C@H](O)[C@@H](NC(C)=O)[C@H](O[C@H]5[C@H](O)[C@@H](NC(C)=O)C(O)O[C@@H]5COS(=O)(=O)[O-])O[C@@H]4CO)O[C@@H]3CO)O[C@H](CO)[C@@H](O)[C@@H]2O)c1.[Na+] (stereo partly drawn) [compound 7, 2-acetamido-4-O-{2-acetamido-4-O-[2-acetamido-2-deoxy-4-O-(2-deoxy-2-(N-3-(undec-4Z-ynyloxy)benzoyl)amino-β-D-glucopyranosyl)-β-D-glucopyranosyl]-2-deoxy-β-D-glucopyranosyl}-2-deoxy-6-O-sulfo-D-glucopyranose, sodium salt]
nodulation activity relative to the benzamide derivative 3 (alfalfa): comparable

CCCCCC/C=C\CCCOc1cccc(C(=O)NC2C(O)[C@H](O)C(CO)O[C@H]2O[C@@H]2C(CO)O[C@@H](O[C@@H]3C(CO)O[C@@H](O[C@@H]4C(CO)O[C@@H](O[C@@H]5C(CO[C@@H]6OC(C)[C@@H](O)C(O)C6O)OC(O)C(NC(C)=O)C5O)C(NC(C)=O)C4O)C(NC(C)=O)C3O)C(NC(C)=O)C2O)c1 (stereo partly drawn) [compound 10, 2-acetamido-4-O-[2-acetamido-4-O-{2-acetamido-4-O-[2-acetamido-2-deoxy-4-O-(2-deoxy-2-(N-3-(undec-4Z-enyloxy)benzoyl)amino-β-D-glucopyranosyl)-β-D-glucopyranosy]-2-deoxy-β-D-glucopyranosyl}-2-deoxy-β-D-glucopyranosyl]-2-deoxy-6-O-(-α-L-fucopyranosyl)-D-glucopyranose]
Root hair deformation (Had) response (Lotus corniculatus; 10^−7 M): + | Root hair deformation (Had) response (Lotus corniculatus; 10^−8 M): + | Root hair deformation (Had) response (Lotus corniculatus; 10^−9 M): + | concentration at which activity is significant in the root hair bioassay (Lotus corniculatus; limit dilution method): nanomolar | activity on the Lotus corniculatus root hair bioassay (Lotus corniculatus; result in words): high activity
